Biological target: T1, human M4 muscarinic acetylcholine receptor (Homo sapiens, UniProt P08173)
T1 construct: expressed in transfected cells
T1 sequence (P08173 1-479): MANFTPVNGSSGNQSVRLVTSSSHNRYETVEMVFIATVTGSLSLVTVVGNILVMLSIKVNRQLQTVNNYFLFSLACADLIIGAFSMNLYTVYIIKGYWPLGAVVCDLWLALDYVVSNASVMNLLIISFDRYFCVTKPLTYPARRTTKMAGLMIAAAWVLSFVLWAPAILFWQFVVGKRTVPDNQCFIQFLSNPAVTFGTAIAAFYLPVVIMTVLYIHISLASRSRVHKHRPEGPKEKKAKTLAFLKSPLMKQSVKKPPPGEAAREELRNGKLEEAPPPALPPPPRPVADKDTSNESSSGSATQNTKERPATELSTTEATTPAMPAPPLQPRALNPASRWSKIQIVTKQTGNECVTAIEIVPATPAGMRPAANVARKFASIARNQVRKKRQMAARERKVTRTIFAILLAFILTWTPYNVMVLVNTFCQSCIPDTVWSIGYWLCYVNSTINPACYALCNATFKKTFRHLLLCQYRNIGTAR
Test: human FLIPR-based M4 PAM assay (CHO-K1 cells with human M4 receptor and Gαqi5, calcium dye fluorescence)
Type: cell-based
Conditions: inflection point of 4 parameter logistic fit; acetylcholine added at 20% of maximum response; read-out: M4PAM IP
Method: In a typical experiment the M4 muscarinic acetylcholine receptor modulating activity of the compounds of the present invention was determined in accordance with the following experimental method. CHO-K1 cells stably transfected with human M4 receptor and chimeric G-protein Gαqi5 (Coward P, et al., Analytical Biochemistry, 270:242-248 (1999)) are thawed from liquid N2 storage, resuspended in growth medium, plated in black, clear bottom 384 well plates, and incubated 16-20 hours at 37° C., 5% CO2. On the day of assay, growth medium is removed, the cells are washed 2 times with wash buffer, and cells are incubated in dye loading buffer at 37° C., 5% CO2 for ˜1 hour. Following dye loading the cell plates are placed in a FLIPR Tetra instrument and while monitoring dye fluorescence (excitation […]), 10 uL of test substance at increasing concentrations is added, and fluorescence values are recorded for 4 min. Next, 10 uL of acetylcholine is added (final concentration calculated so as to achieve 20% of the maximum acetycholine response), and the fluorescence reading is continued for 3.5 min. In some cases, a third addition of acetylcholine (final concentration calculated to achieve 70% of the maximal acetylcholine response) is performed. The resulting dose response curves are fit to a 4 parameter logistic equation and the final result is determined as the inflection point (IP) of the curve
CHO-K1 cells stably transfected with human M4 receptor and chimeric G-protein Gαqi5 are thawed from liquid N2 storage, resuspended in growth medium, plated in black, clear bottom 384 well plates, and incubated 16-20 hours at 37° C., 5% CO2.
On the day of assay, growth medium is removed, the cells are washed 2 times with wash buffer, and cells are incubated in dye loading buffer at 37° C., 5% CO2 for ˜1 h. Following dye loading the cell plates are placed in a FLIPR Tetra instrument and while monitoring dye fluorescence ([…]), 10 uL of test substance at increasing concentrations is added, and fluorescence values are recorded for 4 min. Next, 10 uL of acetylcholine is added (final concentration calculated so as to achieve 20% of the maximum acetycholine response), and the fluorescence reading is continued for 3.5 min. In some cases, a third addition of acetylcholine (final concentration calculated to achieve 70% of the maximal acetylcholine response) is performed.

Row | EC50 | Structure (SMILES)
1 | 0.0959 µM | CC1(Cn2cc(-c3ccc(C#N)nc3-c3ccn4ccnc4c3)cn2)CCOC1 (racemic) [Example 108, 6-(imidazo[1,2-a]pyridin-7-yl)-5-(1-((3-methyltetrahydrofuran-3-yl)methyl)-1H-pyrazol-4-yl)picolinonitrile]
2 | 0.0654 µM | FC(F)(F)C1(Cn2cc(-c3ccc(Cl)nc3-c3ccn4ccnc4c3)cn2)CC1 [Example 59, 7-[6-chloro-3-(1-{[1-(trifluoromethyl)cyclo-propyl]methyl}-1H-pyrazol-4-yl)pyridin-2-yl]imidazo[1,2-a]pyridine]
3 | 0.268 µM | FC(F)(F)C1(Cn2cc(-c3cc(Cl)cnc3-c3ccn4ccnc4c3)cn2)CC1 [Example 57, 7-[5-chloro-3-(1-{[1-(trifluoromethyl)cyclo-propyl]methyl}-1H-pyrazol-4-yl)pyridin-2-yl]imidazo[1,2-a]pyridine]
4 | 0.144 µM | Cc1cn2ccc(-c3nc(C#N)ccc3-c3cnn(CC(C)(F)F)c3)cc2n1 [Example 20, 5-[1-(2,2-difluoropropyl)-1H-pyrazol-4-yl]-6-(2-methylimidazo[1,2-a]pyridin-7-yl)pyridine-2-carbonitrile]
5 | 0.0491 µM | Cc1cn2ccc(-c3nc(C#N)ccc3-c3cnn(CC4(C(F)F)CC4)c3)cc2n1 [Example 58, 5-(1-{[1-(difluoromethyl)cyclo-propyl]methyl}-1H-pyrazol-4-yl)-6-(2-methylimidazo[1,2-a]pyridin-7-yl)pyridine-2-carbonitrile]
6 | 0.0391 µM | Cc1cn2ccc(-c3nc(C#N)ccc3-c3cnn(CC(C)C(F)(F)F)c3)cc2n1 (stereo not drawn) [Example 126, 6-(2-methylimidazo [1,2-a]pyridin-7-yl)-5-(1-(3,3,3-trifluoro-2-methylpropyl)-1H-pyrazol-4-yl)picolinonitrile]
7 | 0.174 µM | Cc1cn2ccc(-c3nc(C#N)ccc3-c3cnn(CCC(C)(C)C#N)c3)cc2n1 [Example 49, 5-[1-(3-cyano-3-methylbutyl)-1H-pyrazol-4-yl]-6-(2-methylimidazo[1,2-a]pyridin-7-yl)pyridine-2-carbonitrile]
8 | 0.0883 µM | Cc1cn2ccc(-c3nc(C#N)ccc3-c3cnn(CCC(O)C(F)(F)F)c3)cc2n1 (stereo not drawn) [Example 43, 6-(2-methylimidazo[1,2-a]pyridin-7-yl)-5-[1-(4,4,4-trifluoro-3-hydroxybutyl)-1H-pyrazol-4-yl]pyridine-2-carbonitrile]
9 | 0.277 µM | Cc1cn2ccc(-c3ncccc3-c3cnn(CC4(CC(F)F)CC4)c3)cc2n1 [Example 17, 7-[3-(1-{[1-(2,2-difluoroethyl)cyclo-propyl]methyl}-1H-pyrazol-4-yl)pyridin-2-yl]-2-methylimidazo[1,2-a]pyridine]
10 | 0.0969 µM | Cc1cn2ccc(-c3nc(C#N)ccc3-c3cnn(CCC(F)(F)C(F)(F)F)c3)cc2n1 [Example 29, 6-(2-methylimidazo[1,2-a]pyridin-7-yl)-5-[1-(3,3,4,4,4-pentafluorobutyl)-1H-pyrazol-4-yl]pyridine-2-carbonitrile]
11 | 0.381 µM | Cc1nc2cc(-c3ncccc3-c3cnn(CC4(F)CC(F)(F)C4)c3)ccn2n1 [Example 130, 2-methyl-7-(3-(1-((1,3,3-trifluorocyclobutyl)methyl)-1H-pyrazol-4-yl)pyridin-2-yl)-[1,2,4]triazolo[1,5-a]pyridine]

Second part, the compound before the results:

Row | Structure (SMILES) | EC50
12 | CC(C)(Cn1cc(-c2ccc(C#N)nc2-c2ccn3ccnc3c2)cn1)C(F)(F)F [Example 44, 6-(imidazo[1,2-a]pyridin-7-yl)-5-(1-(3,3,3-trifluoro-2,2-dimethylpropyl)-1H-pyrazol-4-yl)picolinonitrile] | 0.0284 µM
13 | N#Cc1ccc(-c2cnn(CC(F)C3CC3)c2)c(-c2ccn3ccnc3c2)n1 (stereo not drawn) [Example 124, 5-(1-(2-cyclopropyl-2-fluoroethyl)-1H-pyrazol-4-yl)-6-(imidazo[1,2-a]pyridin-7-yl)picolinonitrile] | 0.0605 µM
14 | Cc1nc2cc(-c3ncc(F)cc3-c3cnn(CC(C)(C)C(C)(F)F)c3)ccc2n1C [Example 103, 5-(3-(1-(3,3-difluoro-2,2-dimethylbutyl)-1H-pyrazol-4-yl)-5-fluoropyridin-2-yl)-1,2-dimethyl-1H-benzo[d]imidazole] | 0.117 µM
15 | Cc1ccc(-c2cnn(CCC(C)C)c2F)c(-c2ccn3ccnc3c2)n1 [Example 95, 7-{3-[5-fluoro-1-(3-methylbutyl)-1H-pyrazol-4-yl]-6-methylpyridin-2-yl}imidazo[1,2-a]pyridine] | 0.0799 µM
16 | CC(C)(C)Cn1cc(-c2ccc(C3CC3)nc2-c2ccn3ccnc3c2)cn1 [Example 99, 7-{6-cyclopropyl-3-[1-(2,2-dimethylpropyl)-1H-pyrazol-4-yl]pyridin-2-yl}imidazo[1,2-a]pyridine] | 0.152 µM
17 | CN1Cc2ccc(-c3nc(C#N)ccc3-c3cnn(CC4(C(F)(F)F)CC4)c3)cc2C1=O [Example 52, 6-(2-methyl-3-oxoisoindolin-5-yl)-5-(1-((1-(trifluoromethyl)cyclopropyl)methyl)-1H-pyrazol-4-yl)picolinonitrile] | 0.0207 µM
18 | N#Cc1ccc(-c2cnn(CC3CC34CC4)c2)c(-c2ccn3ccnc3c2)n1 (stereo not drawn) [Example 51, 6-imidazo[1,2-a]pyridin-7-yl-5-[1-(spiro[2.2]pent-1-ylmethyl)-1H-pyrazol-4-yl]pyridine-2-carbonitrile] | 0.0546 µM
19 | CC(C)CCn1cc(-c2cccnc2-c2ccc3c(c2)C(=O)N(C2CCC2)C3)cn1 [Example 116, 2-cyclobutyl-6-{3-[1-(3-methylbutyl)-1H-pyrazol-4-yl]pyridin-2-yl}-2,3-dihydro-1H-isoindol-1-one] | 0.0846 µM
20 | N#Cc1ccc(-c2cnn(CCC3CC3)c2)c(-c2ccn3ccnc3c2)n1 [Example 45, 5-[1-(2-cyclopropylethyl)-1H-pyrazol-4-yl]-6-imidazo[1,2-a]pyridin-7-ylpyridine-2-carbonitrile] | 0.0356 µM
21 | CC(C)(C)Cn1ncc(-c2ccc(C#N)nc2-c2ccn3ccnc3c2)c1F [Example 135, 5-[1-(2,2-dimethylpropyl)-5-fluoro-1H-pyrazol-4-yl]-6-imidazo[1,2-a]pyridin-7-ylpyridine-2-carbonitrile] | 0.0365 µM
22 | CC(C)(C)Cn1cc(-c2cc(F)cnc2-c2ccn3ccnc3c2)cn1 [Example 80, 7-{3-[1-(2,2-dimethylpropyl)-1H-pyrazol-4-yl]-5-fluoropyridin-2-yl}imidazo[1,2-a]pyridine] | 0.0977 µM
23 | Cc1nc2cc(-c3nc(C#N)ccc3-c3cnn(C[C@]4(F)C[C@H](F)C4)c3)ccc2n1C [Example 129, 5-(1-(((1r,3r)-1,3-difluorocyclobutyl)methyl)-1H-pyrazol-4-yl)-6-(1,2-dimethyl-1H-benzo[d]imidazol-5-yl)picolinonitrile] | 0.114 µM
24 | CC(C)(C)Cn1cc(-c2ccc(C#N)nc2-c2ccn3c(F)cnc3c2)cn1 [Example 82, 5-[1-(2,2-dimethylpropyl)-1H-pyrazol-4-yl]-6-(3-fluoroimidazo[1,2-a]pyridin-7-yl)pyridine-2-carbonitrile] | 0.0516 µM
25 | Cc1nc2cc(-c3nc(C#N)ccc3-c3cnn(CC(C)(C)C(F)(F)F)c3)ccn2n1 [Example 101, 6-(2-methyl[1,2,4]triazolo [1,5-a]pyridin-7-yl)-5-[1-(3,3,3-trifluoro-2,2-dimethylpropyl)-1H-pyrazol-4-yl]pyridine-2-carbonitrile] | 0.058 µM
26 | Cc1nc2cc(-c3nc(C#N)ccc3-c3cnn(CC(C)(C)CC(F)F)c3)ccc2n1C [Example 34, 5-[1-(4,4-difluoro-2,2-dimethylbutyl)-1H-pyrazol-4-yl]-6-(1,2-dimethyl-1H-benzimidazol-5-yl)pyridine-2-carbonitrile] | 0.0542 µM
27 | Cc1cn2ccc(-c3nc(C#N)ccc3-c3cnn(CC(F)(F)C(F)(F)C(F)F)c3)cc2n1 [Example 23, 5-[1-(2,2,3,3,4,4-hexafluorobutyl)-1H-pyrazol-4-yl]-6-(2-methylimidazo[1,2-a]pyridin-7-yl)pyridine-2-carbonitrile] | 0.0423 µM

From US11339156B2, “3-(1H-pyrazol-4-yl)pyridine allosteric modulators of the M4 muscarinic acetylcholine receptor” (Merck Sharp & Dohme Corp., priority 2017, dated 2022)
